Experimental data: publication PMC6528491 (Frontiers in Pharmacology, 2019)
≈ marks a conversion by molar mass, not a printed value. Read-outs that look alike come from different tables or passages of the source.

Experiments:
[1] = design: method as in 2 sources, ref Wu et al., 2005 ||| ref Li et al., 2014; conditions: cited from earlier work
CYP3A4 = conditions: cited from earlier work
Caco2 cell system = conditions: Caco-2; cited from earlier work
[2] = cited from earlier work
Text: After oral administration, BG is rapidly hydrolyzed to baicalein ...

[3] = Population pharmacokinetic analysis of CsA (NONMEM, two-compartment model with transit compartments); assay type: in vivo, healthy Chinese volunteers; conditions: 95% CIs from 1,000 bootstrap samples included 1.0 and were inside 0.8–1.25
[4] = rats, cited from earlier work
P-gp = conditions: rats; after multiple oral doses of BG; ref Tian et al., 2019; cited from earlier work
[5] = intravenous high BG doses (0.23–0.90g/kg) to rats; ref Xin et al., 2013; cited from earlier work
[6] = Clinical drug-drug interaction study, non-compartmental pharmacokinetics of CsA in blood; assay type: in vivo, healthy Chinese volunteers; conditions: single 500 mg BG dose with 200 mg CsA; healthy volunteers; NCA
Description: The study was a single center, open-labeled, two-period, fixed-sequence clinical trial. […] Water intake was allowed 2 h after administration of the drug. All participants were given a standardized meal 4 h after dosing. […] Blood samples were withdrawn using vacuum tubes containing EDTA-K2 and immediately transferred to labeled tubes. The samples were stored at −80°C for subsequent analysis. […] Processing of the whole blood samples involved a two-step protein precipitation. Fifty microliters of zinc sulfate (10 mM) were added to 50 μl of a sample. […] After centrifugation, an aliquot (2 μl) of the supernatant was then injected onto an ultra high-performance liquid chromatography coupled with tandem mass spectrometry (UHPLC–MS/MS) device for analysis. UHPLC–MS/MS was performed using an ExionLC™ analytical UHPLC system (AB Sciex, MA, USA), coupled with a Qtrap 4,500 mass spectrometer (AB Sciex, Framingham, MA, USA), equipped with the Turbo lonSpray interface. […] The protonated analyte ions were detected in positive ionization and multiple reaction monitoring modes. […] Calibration curves were linear over the concentration range of 10–3,000 ng/ml. […] Exploratory statistical comparisons of pharmacokinetic parameters between male and female subjects were performed by the t-test for independent data. […]

[7] = design: method as in 2 sources, one per row (each row's own in cited_ref): ref Albengres and Tillement, 1992; Keogh et al., 1995 ||| ref Atiq et al., 2016; conditions: ref Albengres and Tillement, 1992; Keogh et al., 1995; cited from earlier work
[8] = multiple oral administrations of BG 80 mg/kg, ref Tian et al., 2019
[9] = single dose of BG 136.6 mg/kg, ref Lai et al., 2004

## O=c1cc(-c2ccccc2)oc2cc(O)c(O)c(O)c12 [B, baicalein]
[1]; B single doses to healthy volunteers, ref Li et al., 2014
  Exposure to BG relative to exposure to B: more than 10 fold
[1]; after oral administration of 100 mg B, healthy volunteers, ref Li et al., 2014
  AUC of BG: 580 ng·h/mL
[1]; oral B, ref Li et al., 2014
  Tmax for both BG and B: about 1 h
CYP3A4
  Ki: 2300 nM
Caco2 cell system
  Papp: 9e-06 cm/s

## O=C(O)[C@H]1O[C@@H](Oc2cc3oc(-c4ccccc4)cc(=O)c3c(O)c2O)[C@H](O)[C@@H](O)[C@@H]1O [BG, baicalein 7-O-glucuronide]
[2]; human plasma, ref Tang et al., 2006
  Bound to proteins: 86–92%
[2]; in water, ref Wu et al., 2011
  Solubility: 57 µg/mL (≈ 128 µM)
[2]; ref Noh et al., 2016
  Elimination half-life: 6.36 ± 5.85 h
[2]; ref Wu et al., 2014
  Oral bioavailability: 2.2%
[3]
  Effect of factor BG co-treatment on popPK parameters of CsA (except Ka and Q): did not affect the respective pharmacokinetic parameters of CsA to a clinically relevant extent
[4]; multiple intravenous doses of BG, ref Tian et al., 2019
  Effect on the exposure of CsA: did not affect the exposure of CsA
[4]; [8]
  Decrease of AUC0-∞ of CsA: 25%
  Decrease of Cmax of CsA: 38%
[4]; oral administration of BG, ref Tian et al., 2019
  Effect on Cmax and AUC0-∞ of CsA: significantly decreased
[4]; ref Lai et al., 2004
  Effect on exposure to CsA: increased exposure to oral CsA
[4]; [9]
  Elevation of AUC of CsA compared with CsA alone: ~6 times
  Elevation of Cmax of CsA compared with CsA alone: about 4 times
[4]; single intravenous dose and multiple doses of BG, ref Tian et al., 2019
  Effect on the pharmacokinetics of CsA: had no effect
[1]; after oral administration of 750 mg BG, healthy subjects, ref Wu et al., 2005
  AUC of BG: 613 ng·h/mL
[1]; oral BG, ref Wu et al., 2005
  Tmax: 7.4 h
Caco2 cell system
  Papp: 0.275 ± 1.14 × 10^−6 cm/s
P-gp
  Expression of P-gp in the intestine: increased
  Expression of P-gp in the liver: not changed
[5]
  Decrease of the clearance of midazolam: up to 43%
[6]
  Effect of BG co-administration on the exposure of CsA: no clinically relevant effect

## CC(=O)N1CCN(c2ccc(OCC3COC(Cn4ccnc4)(c4ccc(Cl)cc4Cl)O3)cc2)CC1 (centres unmarked) [ketoconazole]
[7]
  Elevation of CsA concentrations by concomitant administration: several-fold
